In ChEMBL document CHEMBL1142620, “Anthraquinones and betaenone derivatives from the sponge-associated fungus Microsphaeropsis species: novel inhibitors of protein kinases” (J Nat Prod, 2000):

Legend:
[1] = target: T1, Protein kinase C epsilon type (Mus musculus, UniProt P16054); assay: Inhibition of mouse recombinant PKCepsilon expressed in Sf9 insect cells
T1 sequence (P16054 whole entry): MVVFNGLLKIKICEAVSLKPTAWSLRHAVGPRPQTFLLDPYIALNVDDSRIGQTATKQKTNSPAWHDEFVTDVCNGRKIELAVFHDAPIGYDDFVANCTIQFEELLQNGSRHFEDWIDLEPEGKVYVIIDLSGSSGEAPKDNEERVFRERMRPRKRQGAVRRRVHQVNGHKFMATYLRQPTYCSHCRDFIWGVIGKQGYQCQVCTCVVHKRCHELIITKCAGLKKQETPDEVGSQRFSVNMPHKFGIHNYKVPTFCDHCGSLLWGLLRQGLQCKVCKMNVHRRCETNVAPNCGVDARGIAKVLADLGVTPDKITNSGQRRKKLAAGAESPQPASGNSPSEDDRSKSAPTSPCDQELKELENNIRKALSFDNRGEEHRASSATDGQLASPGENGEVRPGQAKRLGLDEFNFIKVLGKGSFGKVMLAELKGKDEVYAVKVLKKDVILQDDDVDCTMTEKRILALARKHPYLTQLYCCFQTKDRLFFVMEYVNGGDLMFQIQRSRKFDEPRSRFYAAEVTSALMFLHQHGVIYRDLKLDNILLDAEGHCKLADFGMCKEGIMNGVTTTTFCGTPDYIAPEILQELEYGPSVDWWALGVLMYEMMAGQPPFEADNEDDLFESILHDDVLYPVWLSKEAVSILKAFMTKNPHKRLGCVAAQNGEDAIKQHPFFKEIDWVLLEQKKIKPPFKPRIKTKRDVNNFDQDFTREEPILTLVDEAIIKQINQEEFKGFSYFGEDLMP

[2] = target: Epidermal growth factor receptor (Homo sapiens, UniProt P00533); assay: Inhibition of human recombinant EGFR kinase expressed in Sf9 insect cells
Sequence of Epidermal growth factor receptor (P00533 whole entry): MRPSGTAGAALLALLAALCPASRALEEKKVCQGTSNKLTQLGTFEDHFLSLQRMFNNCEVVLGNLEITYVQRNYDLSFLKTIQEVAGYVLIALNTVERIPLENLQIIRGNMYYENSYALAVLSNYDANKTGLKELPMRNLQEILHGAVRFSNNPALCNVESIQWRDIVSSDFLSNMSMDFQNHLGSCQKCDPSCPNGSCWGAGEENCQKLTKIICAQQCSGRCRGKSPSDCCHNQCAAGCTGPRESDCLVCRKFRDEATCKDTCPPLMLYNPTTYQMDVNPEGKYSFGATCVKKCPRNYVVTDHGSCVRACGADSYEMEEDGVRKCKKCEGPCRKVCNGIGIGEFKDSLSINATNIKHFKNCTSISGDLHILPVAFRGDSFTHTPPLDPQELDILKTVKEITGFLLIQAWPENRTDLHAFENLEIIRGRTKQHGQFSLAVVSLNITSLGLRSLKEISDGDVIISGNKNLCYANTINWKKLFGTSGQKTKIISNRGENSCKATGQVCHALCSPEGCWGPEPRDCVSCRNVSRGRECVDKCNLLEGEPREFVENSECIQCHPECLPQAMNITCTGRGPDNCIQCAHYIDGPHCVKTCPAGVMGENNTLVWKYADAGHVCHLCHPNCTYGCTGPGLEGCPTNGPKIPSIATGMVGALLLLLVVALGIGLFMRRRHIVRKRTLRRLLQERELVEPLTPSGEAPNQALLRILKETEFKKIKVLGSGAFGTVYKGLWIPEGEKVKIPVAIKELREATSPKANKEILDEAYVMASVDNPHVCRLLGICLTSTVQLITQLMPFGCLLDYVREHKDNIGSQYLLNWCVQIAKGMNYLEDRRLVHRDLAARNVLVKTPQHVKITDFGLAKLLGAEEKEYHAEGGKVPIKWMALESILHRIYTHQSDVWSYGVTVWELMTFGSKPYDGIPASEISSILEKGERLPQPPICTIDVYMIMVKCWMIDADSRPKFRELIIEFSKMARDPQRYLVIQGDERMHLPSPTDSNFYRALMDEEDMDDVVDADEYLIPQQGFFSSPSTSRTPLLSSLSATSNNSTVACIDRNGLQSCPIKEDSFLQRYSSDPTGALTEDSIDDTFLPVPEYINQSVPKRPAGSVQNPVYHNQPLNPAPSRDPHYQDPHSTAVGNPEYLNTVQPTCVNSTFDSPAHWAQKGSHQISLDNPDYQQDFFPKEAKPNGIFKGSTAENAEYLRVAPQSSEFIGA

[3] = target: Cyclin-dependent kinase 4/cyclin D1 (Homo sapiens, UniProt P11802); assay: Inhibition of human recombinant CDK4/cyclin D1 kinase expressed in Sf9 insect cells
Sequence of Cyclin-dependent kinase 4/cyclin D1 (P11802 whole entry): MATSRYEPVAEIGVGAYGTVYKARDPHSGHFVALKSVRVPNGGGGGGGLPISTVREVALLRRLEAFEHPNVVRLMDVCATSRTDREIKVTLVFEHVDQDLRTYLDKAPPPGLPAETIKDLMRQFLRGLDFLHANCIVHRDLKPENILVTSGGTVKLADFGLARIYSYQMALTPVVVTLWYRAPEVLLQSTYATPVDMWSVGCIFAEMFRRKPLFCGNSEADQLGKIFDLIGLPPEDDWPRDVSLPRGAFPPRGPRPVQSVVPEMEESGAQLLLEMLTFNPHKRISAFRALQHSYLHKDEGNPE
Sequence of Cyclin-dependent kinase 4/cyclin D1 (P24385 whole entry, further chain): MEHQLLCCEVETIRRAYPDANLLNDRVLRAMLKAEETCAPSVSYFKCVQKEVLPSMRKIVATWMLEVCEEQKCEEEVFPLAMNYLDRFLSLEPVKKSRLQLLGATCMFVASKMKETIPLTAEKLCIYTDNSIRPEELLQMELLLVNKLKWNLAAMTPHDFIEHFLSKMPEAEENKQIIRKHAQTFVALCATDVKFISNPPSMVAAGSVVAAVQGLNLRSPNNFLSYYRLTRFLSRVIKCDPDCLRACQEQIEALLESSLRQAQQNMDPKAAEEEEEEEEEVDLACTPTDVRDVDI

| SMILES | IC50 [1] [µM] | IC50 [2] [µM] | IC50 [3] [µM] |
| --- | --- | --- | --- |
| CO[C@H](C)c1c(O)cc2c(c1O)C(=O)c1c(cc(O)c(O)c1O)C2=O | 54 | 41 | 37.5 |
| CO[C@H](C)c1c(O)cc2c(c1O)C(=O)c1c(O)cc(O)cc1C2=O | 27 | 27.5 | 22.5 |
| CCC(C)[C@@H]1[C@@](C)(C(=O)/C=C/N(c2ccccc2)c2ccc3ccccc3c2)[C@H]2[C@H](C)C[C@@](C)(O)C[C@]2(O)C(=O)[C@@]1(C)O (stereo not given in full) | > 100 | > 100 | > 100 |
| C[C@@H](O)c1c(O)cc2c(c1O)C(=O)c1c(O)cc(O)cc1C2=O | 18.5 | 37.5 | 43.5 |
| CCC(C)[C@@H]1[C@@](C)(C(=O)/C=C/OC)[C@H]2[C@H](C)C[C@@](C)(O)C[C@]2(O)C(=O)[C@@]1(C)O (stereo not given in full) | 36 | 10.5 | 11.5 |
